Experimental data taken from patent US20260078119A1, “DEGRADER COMPOUNDS AND USES THEREOF” (Bristol-Myers Squibb Company, priority 2024, published 2026).

What was measured:
CAL-51 cells = experiment: CAL-51 Cell Proliferation Assay; type: cell-based; conditions: for EC50: Homo sapiens, 120 hours incubation, 10-point dose response, 4-fold dilutions starting at 10 μM, Cell-Titer-Glo, read-out: CAL-51 Prolif EC50; for CAL-51 Prolif Ymin: minimal percent of DMSO control observed in the concentrations tested (Ymin-obs), 120 hours
How it was run: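 Cells seeded at 350/well in RPMI complete medium onto 10-point, 4-fold compound dilutions from 10 μM (0.1% DMSO), in duplicate, and grown 120 h at 37 °C. CellTiter-Glo luminescence, blank-subtracted and normalised to DMSO, was fitted with a four-parameter logistic to give EC50; Ymin-obs is the lowest observed percent of DMSO control.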

FAK = target: T1, FAK (Homo sapiens, UniProt Q05397); experiment: FAK-HiBiT Degradation Assay; type: cell-based; conditions: for DC50: JHH-4-FAK-HiBiT clone d01 cells, two hours incubation, 10-point dose response, 3-fold dilution starting at 1 μM, Nano-Glo HiBiT luminescence, read-out: FAK HiBiT EC50; for FAK HiBiT Ymin: lower limit of the four parameter fit (value A), Ymax derived using DMSO control, JHH-4-FAK-HiBiT cells, two hours
T1 construct: homozygous knock-in of a HiBiT tag (Promega Corporation, Madison, WI) to the C-terminus of the FAK gene in its natural genomic locus; endogenous in cells; host or cells: JHH-4-FAK-HiBiT clone d01 (CRISPR-Cas9 knock-in at the endogenous locus)
How it was run: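 JHH-4 cells with homozygous CRISPR knock-in of C-terminal HiBiT on endogenous FAK, treated 2 h at 37 °C with compounds in 10-point 3-fold series from 1 μM. HiBiT lytic luminescence read; EC50 from four-parameter logistic fit, Ymax set by DMSO control, Ymin as lower fit limit.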

T1 sequence (Q05397 whole entry): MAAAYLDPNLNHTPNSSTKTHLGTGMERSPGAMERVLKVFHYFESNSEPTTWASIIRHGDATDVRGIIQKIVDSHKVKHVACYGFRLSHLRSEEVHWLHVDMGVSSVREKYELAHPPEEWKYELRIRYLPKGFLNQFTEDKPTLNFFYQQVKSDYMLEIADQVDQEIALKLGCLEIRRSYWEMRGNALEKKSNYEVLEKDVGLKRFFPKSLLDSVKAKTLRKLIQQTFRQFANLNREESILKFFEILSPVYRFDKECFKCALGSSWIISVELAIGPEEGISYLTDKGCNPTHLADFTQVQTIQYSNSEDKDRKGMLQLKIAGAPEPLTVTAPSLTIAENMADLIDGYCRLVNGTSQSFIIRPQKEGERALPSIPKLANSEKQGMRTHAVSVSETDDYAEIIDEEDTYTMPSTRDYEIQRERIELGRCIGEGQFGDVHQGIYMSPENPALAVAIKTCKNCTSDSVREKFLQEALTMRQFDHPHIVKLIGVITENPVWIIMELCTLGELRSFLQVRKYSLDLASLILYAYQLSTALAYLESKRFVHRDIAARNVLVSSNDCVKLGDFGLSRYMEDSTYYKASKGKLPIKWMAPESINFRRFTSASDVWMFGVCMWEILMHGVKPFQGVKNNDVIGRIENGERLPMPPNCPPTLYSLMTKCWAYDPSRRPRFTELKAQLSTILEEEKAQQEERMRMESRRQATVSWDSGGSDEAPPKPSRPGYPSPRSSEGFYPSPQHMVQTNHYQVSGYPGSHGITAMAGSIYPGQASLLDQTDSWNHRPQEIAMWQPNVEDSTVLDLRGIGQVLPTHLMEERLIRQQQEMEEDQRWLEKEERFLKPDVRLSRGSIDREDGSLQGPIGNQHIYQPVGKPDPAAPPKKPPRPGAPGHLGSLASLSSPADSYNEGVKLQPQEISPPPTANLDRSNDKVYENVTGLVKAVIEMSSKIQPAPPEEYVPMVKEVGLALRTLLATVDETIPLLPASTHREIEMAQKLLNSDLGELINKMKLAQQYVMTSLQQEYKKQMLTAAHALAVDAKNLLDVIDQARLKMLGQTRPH

Row | DC50 (FAK) [nM] | FAK HiBiT Ymin (FAK) | SMILES | EC50 (CAL-51 cells) [nM] | CAL-51 Prolif Ymin (CAL-51 cells)
1 | 51.9 | 47.34 | O=C1CC[C@H](N2Cc3cc(Cn4ncc5c(-c6ncc(C(F)(F)F)cc6Cl)cc(N6CC[C@H](CCO)C6)nc54)ccc3C2=O)C(=O)N1 [Example 145, (S)-3-(5-((4-(3-chloro-5-(trifluoromethyl)pyridin-2-yl)-6-((R)-3-(2-hydroxyethyl)pyrrolidin-1-yl)-1H-pyrazolo[3,4-b]pyridin-1-yl)methyl)-1-oxoisoindolin-2-yl)piperidine-2,6-dione] | 74.8 | 66.44
2 | 9.57 | 12.82 | CN(c1cc(-c2ncc(C(F)(F)F)cc2Cl)c2cnn(Cc3ccc4c(c3)CN([C@H]3CCC(=O)NC3=O)C4=O)c2n1)[C@H]1C[C@H](O)C1 [Example 81, (3S)-3-[5-({4-[3-chloro-5-(trifluoromethyl)pyridin-2-yl]-6-{methyl[(1r,3r)-3-hydroxycyclobutyl]amino}-1H-pyrazolo[3,4-b]pyridin-1-yl}methyl)-1-oxo-2,3-dihydro-1H-isoindol-2-yl]piperidine-2,6-dione] | 6.37 | 38.16
3 | 0.14 | 7.57 | O=C1CC[C@H](N2Cc3cc(Cn4ncc5c(-c6ncc(C(F)(F)F)cc6Cl)c(F)c(N6CC(F)C6)nc54)ccc3C2=O)C(=O)N1 [Example 1, (3S)-3-[5-({4-[3-chloro-5-(trifluoromethyl)pyridin-2-yl]-5-fluoro-6-(3-fluoroazetidin-1-yl)-1H-pyrazolo[3,4-b]pyridin-1-yl}methyl)-1-oxo-2,3-dihydro-1H-isoindol-2-yl]piperidine-2,6-dione] | 0.17 | 27.59
4 | 0.57 | 8.83 | O=C1CC[C@H](N2Cc3cc(Cn4ncc5c(-c6ncc(OC(F)(F)F)cc6Cl)cc(N6CC(F)C6)nc54)ccc3C2=O)C(=O)N1 [Example 7, (S)-3-(5-((4-(3-chloro-5-(trifluoromethoxy)pyridin-2-yl)-6-(3-fluoroazetidin-1-yl)-1H-pyrazolo[3,4-b]pyridin-1-yl)methyl)-1-oxoisoindolin-2-yl)piperidine-2,6-dione] | 0.36 | 21.87
5 | 15.5 | 16.43 | O=C1CCC(N2Cc3cc(Cn4ncc5c(-c6ncccc6Br)cc(N6CC(F)C6)nc54)ccc3C2=O)C(=O)N1 (centres unmarked) [Example 93, 3-(5-{[4-(3-bromopyridin-2-yl)-6-(3-fluoroazetidin-1-yl)-1H-pyrazolo[3,4-b]pyridin-1-yl]methyl}-1-oxo-2,3-dihydro-1H-isoindol-2-yl)piperidine-2,6-dione] | 9.36 | 36.26
6 | 1.59 | 6.11 | O=C1CCC(N2Cc3cc(Cn4ncc5c(-c6ncc(C(F)F)cc6Cl)cc(N6CC(F)C6)nc54)ccc3C2=O)C(=O)N1 (centres unmarked) [Example 43, 3-[5-({4-[3-chloro-5-(difluoromethyl)pyridin-2-yl]-6-(3-fluoroazetidin-1-yl)-1H-pyrazolo[3,4-b]pyridin-1-yl}methyl)-1-oxo-2,3-dihydro-1H-isoindol-2-yl]piperidine-2,6-dione] | 155 | 51.95
7 | 6.88 | 8.00 | CCOc1cnc(-c2cc(N3CC(F)C3)nc3c2cnn3Cc2ccc3c(c2)CN(C2CCC(=O)NC2=O)C3=O)c(CC)c1 (centres unmarked) [Example 74, 3-(5-{[4-(5-ethoxy-3-ethylpyridin-2-yl)-6-(3-fluoroazetidin-1-yl)-1H-pyrazolo[3,4-b]pyridin-1-yl]methyl}-1-oxo-2,3-dihydro-1H-isoindol-2-yl)piperidine-2,6-dione] | 4.11 | 34.11
8 | 87.1 | 12.66 | CN(c1cc(-c2ncc(C(F)(F)F)cc2Cl)c2cnn(Cc3ccc4c(c3)CN([C@H]3CCC(=O)NC3=O)C4=O)c2n1)[C@H]1C[C@@H](O)C1 [Example 120, (3R)-3-[5-({4-[3-chloro-5-(trifluoromethyl)pyridin-2-yl]-6-{methyl[(1s,3s)-3-hydroxycyclobutyl]amino}-1H-pyrazolo[3,4-b]pyridin-1-yl}methyl)-1-oxo-2,3-dihydro-1H-isoindol-2-yl]piperidine-2,6-dione] | 3.03 | 28.57
9 | 0.42 | 6.93 | CN(C)c1cc(-c2ncc(C(F)(F)F)cc2Cl)c2cnn(Cc3ccc4c(c3)CN(C3CCC(=O)NC3=O)C4=O)c2n1 (centres unmarked) [Example 5, 3-[5-({4-[3-chloro-5-(trifluoromethyl)pyridin-2-yl]-6-(dimethylamino)-1H-pyrazolo[3,4-b]pyridin-1-yl}methyl)-1-oxo-2,3-dihydro-1H-isoindol-2-yl]piperidine-2,6-dione] | 0.36 | 29.57
10 | 8.56 | 10.79 | O=C1CCC(N2Cc3cc(Cn4ncc5c(-c6ncccc6C(F)(F)F)cc(N6CC(F)C6)nc54)ccc3C2=O)C(=O)N1 (centres unmarked) [Example 79, 3-(5-{[6-(3-fluoroazetidin-1-yl)-4-[3-(trifluoromethyl)pyridin-2-yl]-1H-pyrazolo[3,4-b]pyridin-1-yl]methyl}-1-oxo-2,3-dihydro-1H-isoindol-2-yl)piperidine-2,6-dione] | 3.22 | 23.53
11 | 0.55 | 9.05 | O=C1CCC(N2Cc3cc(Cn4ncc5c(-c6ncc(Cl)cc6Cl)c(F)c(N6CC(F)C6)nc54)ccc3C2=O)C(=O)N1 (centres unmarked) [Example 8, 3-(5-{[4-(3,5-dichloropyridin-2-yl)-5-fluoro-6-(3-fluoroazetidin-1-yl)-1H-pyrazolo[3,4-b]pyridin-1-yl]methyl}-1-oxo-2,3-dihydro-1H-isoindol-2-yl)piperidine-2,6-dione] | 0.85 | 17.44
12 | 0.98 | 7.33 | Cc1cc(Cl)cnc1-c1c(F)c(N2CC(F)C2)nc2c1cnn2Cc1ccc2c(c1)CN(C1CCC(=O)NC1=O)C2=O (centres unmarked) [Example 37, 3-(5-{[4-(5-chloro-3-methylpyridin-2-yl)-5-fluoro-6-(3-fluoroazetidin-1-yl)-1H-pyrazolo[3,4-b]pyridin-1-yl]methyl}-1-oxo-2,3-dihydro-1H-isoindol-2-yl)piperidine-2,6-dione] | 0.6 | 19.81
13 | 18.3 | 23.92 | CN(c1cc(-c2ncc(C(F)(F)F)cc2Cl)c2cnn(Cc3ccc4c(c3)CN(C3CCC(=O)NC3=O)C4=O)c2n1)C1CCOCC1 (centres unmarked) [Example 94, 3-[5-({4-[3-chloro-5-(trifluoromethyl)pyridin-2-yl]-6-[methyl(oxan-4-yl)amino]-1H-pyrazolo[3,4-b]pyridin-1-yl}methyl)-1-oxo-2,3-dihydro-1H-isoindol-2-yl]piperidine-2,6-dione] | 5.52 | 47.74
14 | 13.1 | 22.43 | O=C1CC[C@H](N2Cc3cc(Cn4ncc5c(-c6ncc(C(F)(F)F)cc6Cl)cc(NCCF)nc54)ccc3C2=O)C(=O)N1 [Example 146, (S)-3-(5-((4-(3-chloro-5-(trifluoromethyl)pyridin-2-yl)-6-((2-fluoroethyl)amino)-1H-pyrazolo[3,4-b]pyridin-1-yl)methyl)-1-oxoisoindolin-2-yl)piperidine-2,6-dione] | 9.4 | 57.23
15 | 10.1 | 11.17 | Cc1cc(F)cnc1-c1cc(N2CC(F)C2)nc2c1cnn2Cc1ccc2c(c1)CN([C@H]1CCC(=O)NC1=O)C2=O [Example 144, (S)-3-(5-((4-(5-fluoro-3-methylpyridin-2-yl)-6-(3-fluoroazetidin-1-yl)-1H-pyrazolo[3,4-b]pyridin-1-yl)methyl)-1-oxoisoindolin-2-yl)piperidine-2,6-dione] | 7.14 | 35.43
16 | 29.6 | 12.65 | C[C@]1(O)CCN(c2cc(-c3ncc(C(F)(F)F)cc3Cl)c3cnn(Cc4ccc5c(c4)CN([C@H]4CCC(=O)NC4=O)C5=O)c3n2)C1 [Example 102, (3S)-3-[5-({4-[3-chloro-5-(trifluoromethyl)pyridin-2-yl]-6-[(3S)-3-hydroxy-3-methylpyrrolidin-1-yl]-1H-pyrazolo[3,4-b]pyridin-1-yl}methyl)-1-oxo-2,3-dihydro-1H-isoindol-2-yl]piperidine-2,6-dione] | 10.9 | 35.36
17 | 4.47 | 17.03 | O=C1CCC(N2Cc3cc(Cn4ncc5c(-c6ncc(F)cc6F)cc(N6CC(F)C6)nc54)ccc3C2=O)C(=O)N1 (centres unmarked) [Example 65, 3-(5-{[4-(3,5-difluoropyridin-2-yl)-6-(3-fluoroazetidin-1-yl)-1H-pyrazolo[3,4-b]pyridin-1-yl]methyl}-1-oxo-2,3-dihydro-1H-isoindol-2-yl)piperidine-2,6-dione] | 1.89 | 36.07
